Assay results from patent publication US7687609B2, “Galectin-glycosaminoglycan complex and method for controlling galectin activity” (National Institute of Advanced Industrial Science and …, priority 2006, dated 2010).
“Also recorded” adds a separate entry of the source.

Assays:
Format in all cases: binding
[1] = biological target: T1, Galectin-1 (Homo sapiens, UniProt P09382); experiment: FAC affinity test on galectin-immobilized column; conditions: for V − V0 Value: pyridyl-aminated carbohydrate, galectin-1 immobilized 0.8 mg/ml, less than 5 μl = below interaction detection limit
T1 construct: made in house
Description: (§1) Various galectin molecules-immobilized columns were prepared by the method described by Nakamura S, Yagi F, Totani K, Ito γ and Hirabayashi J in FEBS J., 272, 2784-2799 (2005), using NHS Sepharose (manufactured by Amersham Bioscience) as the carrier for immobilizing galectin molecules and in accordance with the instructions attached thereto (put in parentheses is immobilization concentration, mg galectin/ml carrier).
(§2) Each galectin molecule was immobilized onto the carrier at the following concentration; galectin-1 (0.8 mg/ml), galectin-3 (0.5 mg/ml), galectin-8N (3.6 mg/ml), galectin-8C (4.0 mg/ml), galectin-9N (3.6 mg/ml), galectin-9C (3.0 mg/ml). The carrier on which each galectin was immobilized was charged into a stainless steel miniature column (2 mm in inner diameter, 10 mm in length; manufactured by Shimadzu Corp.).
(§3) A high performance liquid chromatography (HPLC) system was equipped with a galectin molecule-immobilized column, and the test was carried out by the method described in Nakamura S, Yagi F, Totani K, Ito γ and Hirabayashi J in FEBS J., 272, 2784-2799 (2005).
(§4) As the negative control sample, pyridyl-aminated N-acetylglucosamine (PA-GlcNAc, manufactured by Takara Bio, pyridyl-aminated glycosaminoglycan-oligosaccharide sample control) or pyridyl-aminated pullulan (prepared by carrying out pyridylamination of standard pullulan manufactured by Shodex, pyridyl-aminated glycosaminoglycan polysaccharide sample control) was used, and a V−V0 value was calculated from their eluate volume (V0 value) measured by fluorescence detection and the eluate volume (V value) of the sample, namely pyridyl-aminated glycosaminoglycan carbohydrate, and this was used as the index of interaction strength (Protein, Nucleic Acid and Enzyme, 48(8), 1206-1212 (2003)).
(§5) V−V0 values of pyridyl-aminated glycosaminoglycans (HA, CH, DN, NAH, CSA, CSB, CSC, CSD, CSE, KS-I and KS-II) were calculated based on PA-GlcNAc, and V−V0 values of pyridyl-aminated glycosaminoglycan-oligosaccharides (G2K1, G1L1, G4L4, L2L2, L2L4, L4L4, SL2L4 and CH3 to CH12) based on pyridyl-aminated pullulan, respectively.
(§6) In this connection, when the calculated value of the V−V0 value was less than 5 μl, it was regarded as less than the interaction detection limit in this example.

[2] = biological target: T2, Galectin-9N (Homo sapiens, UniProt O00182); experiment: FAC affinity test on galectin-immobilized column; conditions: for V − V0 Value: pyridyl-aminated carbohydrate, galectin-9N immobilized 3.6 mg/ml, less than 5 μl = below interaction detection limit
T2 construct: N and C respectively represent N-terminal side carbohydrate-recognition domain and C-terminal side carbohydrate-recognition domain; made in house
Description: as §1, §2, §3, §4, §5, §6

[3] = biological target: T3, Galectin-3 (Homo sapiens, UniProt P17931); experiment: FAC affinity test on galectin-immobilized column; conditions: for V − V0 Value: pyridyl-aminated carbohydrate, galectin-3 immobilized 0.5 mg/ml, less than 5 μl = below interaction detection limit; for binding to galectin-3 (in words): text statement on the FAC results
T3 construct: made in house
Description: as §1, §2, §3, §4, §5, §6

[4] = biological target: T4, Galectin-9C (Homo sapiens, UniProt O00182); experiment: FAC affinity test on galectin-immobilized column; conditions: for V − V0 Value: pyridyl-aminated carbohydrate, galectin-9C immobilized 3.0 mg/ml, less than 5 μl = below interaction detection limit
T4 construct: N and C respectively represent N-terminal side carbohydrate-recognition domain and C-terminal side carbohydrate-recognition domain; made in house
Description: as §1, §2, §3, §4, §5, §6

[5] = test system: tested galectin molecules (galectin-1, 3, 8N, 8C, 9N and 9C); experiment: FAC affinity test, statements on the whole panel of tested galectins; conditions: Table 3, whole galectin panel
From the text: Using FAC, the present inventors have conducted a comprehensive analysis of the interactions between various galectin molecules (galectin-1, 3, 8N, 8C, 9N and 9C; N and C respectively represent N-terminal side carbohydrate-recognition domain and C-terminal side carbohydrate-recognition domain)-immobilized columns and various fluorescence-labeled glycosaminoglycan molecules. As a result, novel affinity was found by the combination of specific galectin molecules and glycosaminoglycan molecules to thereby accomplish the present invention.
as §3, §4, §6

[6] = biological target: T5, Galectin-8N (Homo sapiens, UniProt O00214); experiment: FAC affinity test on galectin-immobilized column; conditions: for V − V0 Value: pyridyl-aminated carbohydrate, galectin-8N immobilized 3.6 mg/ml, less than 5 μl = below interaction detection limit; for binding to galectin-8N (in words): text statement on the FAC results
T5 construct: N and C respectively represent N-terminal side carbohydrate-recognition domain and C-terminal side carbohydrate-recognition domain; made in house
T5 sequence (O00214 19-152 limits assumed): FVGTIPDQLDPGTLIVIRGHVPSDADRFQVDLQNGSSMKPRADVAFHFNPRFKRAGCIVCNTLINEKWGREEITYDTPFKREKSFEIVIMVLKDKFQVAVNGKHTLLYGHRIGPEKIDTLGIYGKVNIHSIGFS
Description: as §1, §2, §3, §4, §5, §6

[7] = biological target: T6, Galectin-8C (Homo sapiens, UniProt O00214); experiment: FAC affinity test on galectin-immobilized column; conditions: pyridyl-aminated carbohydrate; galectin-8C immobilized 4.0 mg/ml; less than 5 μl = below interaction detection limit
T6 construct: N and C respectively represent N-terminal side carbohydrate-recognition domain and C-terminal side carbohydrate-recognition domain; made in house
T6 sequence (O00214 187-317 limits assumed): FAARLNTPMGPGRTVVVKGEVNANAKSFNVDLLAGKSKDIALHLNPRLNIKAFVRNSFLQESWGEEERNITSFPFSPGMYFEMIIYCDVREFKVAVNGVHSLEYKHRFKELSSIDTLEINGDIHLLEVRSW
Description: as §1, §2, §3, §4, §5, §6

[8] = text statement on the FAC results

T4 sequence (O00182 227-355 limits assumed): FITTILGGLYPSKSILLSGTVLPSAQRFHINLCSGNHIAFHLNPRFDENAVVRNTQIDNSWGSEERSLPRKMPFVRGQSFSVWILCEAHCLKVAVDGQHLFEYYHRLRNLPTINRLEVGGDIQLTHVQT
T2 sequence (O00182 17-148 limits assumed): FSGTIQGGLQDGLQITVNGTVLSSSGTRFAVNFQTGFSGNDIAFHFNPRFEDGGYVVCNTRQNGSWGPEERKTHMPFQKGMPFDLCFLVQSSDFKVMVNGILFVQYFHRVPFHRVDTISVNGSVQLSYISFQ
T1 sequence (P09382 whole entry): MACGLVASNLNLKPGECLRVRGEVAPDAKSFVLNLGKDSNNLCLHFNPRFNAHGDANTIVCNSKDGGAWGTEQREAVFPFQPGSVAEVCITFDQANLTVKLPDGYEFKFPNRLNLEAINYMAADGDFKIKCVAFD
T3 sequence (P17931 whole entry): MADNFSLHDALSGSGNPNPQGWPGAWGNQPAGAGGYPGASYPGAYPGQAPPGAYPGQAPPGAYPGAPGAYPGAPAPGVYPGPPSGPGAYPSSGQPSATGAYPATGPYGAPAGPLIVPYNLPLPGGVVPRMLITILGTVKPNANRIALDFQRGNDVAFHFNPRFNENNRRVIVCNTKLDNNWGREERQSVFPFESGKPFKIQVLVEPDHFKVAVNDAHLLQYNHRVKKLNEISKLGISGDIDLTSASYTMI

| Compound | V − V0 Value [1] | V − V0 Value [2] | V − V0 Value [3] | V − V0 Value [4] | binding to the tested galectin molecules (in words) [5] | V − V0 Value [6] | V − V0 Value [7] | binding to galectin-8N (in words) [6] | binding to galectin-3 (in words) [3] | binding to galectin-1 (in words) [1, 8] | binding to galectin-9N (in words) [2, 8] | binding to galectin-9C (in words) [4, 8] |
| --- | --- | --- | --- | --- | --- | --- | --- | --- | --- | --- | --- | --- |
| chondroitin sulfate C [CSC, reference compound] | <5.0 µL | <5.0 µL | <5.0 µL | <5.0 µL | did not bind | <5.0 µL | <5.0 µL |  |  |  |  |  |
| CC(=O)NC1C(O)OC(COS(=O)(=O)O)C(OC2OC(COS(=O)(=O)O)C(O)C(OC3OC(COS(=O)(=O)O)C(OC4OC(CO)C(O)C(OC5(C(=O)O)CC(O)C(NC(C)=O)C(C(O)C(O)CO)O5)C4O)C(O)C3NC(C)=O)C2O)C1O (stereo not drawn) [SL2L4, NeuAc α2-3 Gal β1-4 GlcNAc6S β1-3 Gal6S β1-4 GlcNAc6S] | <5.0 µL | <5.0 µL | 8.2 ± 0.2 µL | <5.0 µL | bound to various galectin molecules | 26.5 ± 0.9 µL | <5.0 µL | showed binding affinity | showed binding affinity |  |  |  |
| N-acetylheparosan [NAH, reference compound] | <5.0 µL | <5.0 µL | <5.0 µL | <5.0 µL | did not bind | <5.0 µL | <5.0 µL |  |  |  |  |  |
| cornea type keratan sulfate [KS-I] | 10.3 ± 4.5 µL | 105.3 ± 22.6 µL | 21.7 ± 4.3 µL | 12.2 ± 1.0 µL |  | <5.0 µL | <5.0 µL | showed binding affinity | bound; also recorded: showed binding affinity | bound; also recorded: showed binding affinity | bound; also recorded: showed binding affinity | bound; also recorded: showed binding affinity |

The next lines start with results.

| V − V0 Value [1] | V − V0 Value [2] | V − V0 Value [3] | V − V0 Value [4] | binding to the tested galectin molecules (in words) [5] | V − V0 Value [6] | V − V0 Value [7] | binding to galectin-8N (in words) [6] | Compound | binding to galectin-3 (in words) [3] | binding to galectin-1 (in words) [1, 8] | binding to galectin-9N (in words) [2, 8] | binding to galectin-9C (in words) [4, 8] |
| --- | --- | --- | --- | --- | --- | --- | --- | --- | --- | --- | --- | --- |
| <5.0 µL | 116.2 µL | 7.8 ± 1.9 µL | <5.0 µL |  |  |  |  | CC(=O)N[C@H]1[C@H](O[C@H]2[C@H](O)[C@@H](O)[C@H](O[C@H]3[C@@H](O)[C@@H](CO)O[C@@H](O[C@H]4[C@H](O)[C@@H](O)[C@H](O[C@H]5[C@@H](O)[C@@H](CO)O[C@@H](O[C@H]6[C@H](O)[C@@H](O)[C@H](O[C@H]7[C@@H](O)[C@@H](CO)OC(O)[C@@H]7NC(C)=O)O[C@@H]6C(=O)O)[C@@H]5NC(C)=O)O[C@@H]4C(=O)O)[C@@H]3NC(C)=O)O[C@@H]2C(=O)O)O[C@H](CO)[C@H](O)[C@@H]1O[C@@H]1O[C@H](C(=O)O)[C@@H](O)[C@H](O)[C@H]1O (stereo partly drawn) [CH8, GlcA β1-3 (GalNAc β1-4 GlcA β1-3)3 GalNAc] |  |  |  |  |
| <5.0 µL | 199.4 µL | 15.6 ± 2.5 µL | <5.0 µL |  |  |  |  | CC(=O)NC1C(OC2C(C(=O)O)OC(OC3C(O)C(CO)OC(OC4C(C(=O)O)OC(OC5C(O)C(CO)OC(OC6C(C(=O)O)OC(OC7C(O)C(CO)OC(OC8C(C(=O)O)OC(OC9C(O)C(CO)OC(O)C9NC(C)=O)C(O)C8O)C7NC(C)=O)C(O)C6O)C5NC(C)=O)C(O)C4O)C3NC(C)=O)C(O)C2O)OC(CO)C(O)C1O (stereo not drawn) [CH9, (GalNAc β1-4 GlcA β1-3)4 GalNAc] |  |  |  |  |
